Laboratory results from patent US9034922B2, “Composition for maintaining function of platelets” (THE UNIVERSITY OF TOKYO, priority 2010, dated 2015).

Key:
[1] = biological target: T1, Matrix metalloproteinase 13 (MMP-13) (Homo sapiens, UniProt P45452); experiment: Enzyme inhibition experiment, MMP-13; assay type: biochemical; details: 444221 substrate, 37° C., 4 hours
T1 construct: purchased Chemicon CC068
Method: Matrix metalloproteinase 13 (MMP-13) (manufactured by Chemicon, product number: CC068)
(§1) The enzyme reaction was carried out using the enzymes and substrates. Specifically, if necessary, the enzyme was activated in advance with APMA (final concentration 1 mmol/L, p-aminophenylmercuric acetate, manufactured by Sigma-Aldrich Co., A9563) according to information from the manufacturer. Then, in a 96-well plate for fluorescence measurement, 90 μL of an enzyme solution prepared with Assay Buffer A (50 mmol/L Tris-HCl buffer (pH 7.5) containing 200 mmol/L sodium chloride, 5 mmol/L calcium chloride, 10 μmol/L zinc sulfate, and 2 mg/mL bovine serum albumin) was mixed with 90 μL of the substrate adjusted to be 20 μmol/L with Assay Buffer B (50 mmol/L Tris-HCl buffer (pH 7.5) containing 200 mmol/L sodium chloride, 5 mmol/L calcium chloride, 10 μmol/L zinc sulfate, and 0.05% PLURONIC F-68), and incubated for reaction at 25° C. or 37° C. for several hours. Moreover, the fluorescence intensities before and after the reaction were measured using a fluorometer to determine the enzyme activity.

[2] = biological target: T2, Matrix metalloproteinase 17 (MMP-17) (Homo sapiens, UniProt Q9ULZ9); experiment: Enzyme inhibition experiment, MMP-17; assay type: biochemical; details: 3163 substrate, 25° C., 5 hours
T2 construct: purchased Calbiochem 475940
T2 sequence (Q9ULZ9 126-298 limits assumed): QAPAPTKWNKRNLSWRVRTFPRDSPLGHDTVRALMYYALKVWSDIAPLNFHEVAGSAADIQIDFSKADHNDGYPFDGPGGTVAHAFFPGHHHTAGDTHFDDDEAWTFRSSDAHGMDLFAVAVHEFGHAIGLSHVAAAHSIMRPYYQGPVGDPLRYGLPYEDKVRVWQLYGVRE
Method: Matrix metalloproteinase 17 (MMP-17) (manufactured by Calbiochem, product number: 475940)
(§2) 3168 substrate (MOCAc-Arg-Pro-Lys-Pro-Val-Glu-Nva-Trp-Arg-Lys(Dnp)-NH2, manufactured by Peptide Institute, Inc.): excitation wavelength at 320 nm, emission wavelength at 405 nm, and 3163 substrate (MOCAc-Pro-Leu-Gly-Leu-A2pr(Dnp)-Ala-Arg-NH2, manufactured by Peptide Institute, Inc.): excitation wavelength at 320 nm, emission wavelength at 405 nm.
as §1, with “activity. An inhibition rate was obtained based on the enzyme activities in the presence and absence of the test substances, and the 50% inhibitory concentration (IC50) was calculated.” for “activity.”

[3] = system: human peripheral blood PRP (platelet-rich plasma); experiment: Function-maintaining effect on human peripheral blood PRP (flow cytometry CD41/CD42b); assay type: cell-based; details: Test Example 12; 37° C., 24 hours or 72 hours; S-45457 50 μM, S-45282 5 μM, p38 inhibitors 40 μM
[4] = biological target: T3, Matrix metalloproteinase 3 (MMP-3) (Homo sapiens, UniProt P08254); experiment: Enzyme inhibition experiment, MMP-3; assay type: biochemical; details: 3168 substrate, 37° C., 4 hours
T3 construct: purchased Calbiochem 444217
T3 sequence (P08254 100-272 limits assumed): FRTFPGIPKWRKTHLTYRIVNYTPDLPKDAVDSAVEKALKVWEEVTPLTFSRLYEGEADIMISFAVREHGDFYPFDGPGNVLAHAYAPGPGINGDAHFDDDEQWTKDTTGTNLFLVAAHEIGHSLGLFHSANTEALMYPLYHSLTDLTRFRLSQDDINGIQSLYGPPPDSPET
Method: Matrix metalloproteinase 3 (MMP-3) (manufactured by Calbiochem, product number: 444217)
as §2
as §1, with “activity. An inhibition rate was obtained based on the enzyme activities in the presence and absence of the test substances, and the 50% inhibitory concentration (IC50) was calculated.” for “activity.”

[5] = system: iPS cell-derived platelets (ADAM17-mediated GPIbα shedding); experiment: Function-maintaining effect on iPS cell-derived platelets in culture system (flow cytometry CD41/CD42b, platelet count); assay type: cell-based, human; details: Test Example 7, 8 days
Description: As human iPS cells (hiPS cells), an iPS cell line (TkDA3-4) established at the University of Tokyo by introducing Oct4, Klf4, Sox2, and c-Myc into human-derived skin cells was also used). […] The cells were subcultured for every 3 days, and those keeping an undifferentiated state were used.
Thereby, megakaryocytes/platelets were induced.

[6] = system: human peripheral blood platelets adhering to VWF; experiment: Adhesion ability of platelets to VWF-coated flow chamber; assay type: cell-based; details: Test Example 15; platelets incubated with 15 μM S-45457 and 100 μM CCCP, 37° C., 24 hours; wall shear rate 1500 S^−1
Method: Then, the supernatant was removed. The precipitate thus obtained was suspended in a Tyrode HEPES Ca(−) buffer, added with 100 μM CCCP and simultaneously added with one of either DMSO or 15 μM S-45457 and followed by incubation at 37° C. for 24 hours. Note that, in this experiment, one obtained by adding CCCP and DMSO and the subsequent incubation was prepared as a negative control, while one obtained without the addition or the incubation treatments was prepared as a positive control.
Further, after the incubation (in the case of the positive control, without incubation), the suspension was added with TMRE (tetramethylrhodamine ethyl ester perchlorate) having been diluted to 1/2000 and incubated at room temperature for 15 minutes to label the platelets with fluorescence. […]
Next, each of fluorescence-labelled platelet samples was added to and mixed with a whole blood sample of collected human peripheral blood anticoagulated with argatroban (thrombin inhibitor) so that the number of platelets of the fluorescence-labelled platelet sample was 10% of the whole blood platelets. […] The fluorescence-labelled platelets which formed a thrombus were visualized using an inverted stage epifluorescence video microscope system (DM IRB, manufactured by Leica). […] Further, a percentage of surface area covered by platelets was calculated using Image-J software (NIH Image). […]

SMILES | IC50 [1] [µM] | IC50 [2] [µM] | function-maintaining effect on human peripheral blood PRP [3] | IC50 [4] [µM] | toxicity to cells (total number of platelets) ([5]; iPS cells and differentiated cells, 1.5 to 50 μM) | concentration dependency of inhibition of GPIbα shedding ([5]; iPS cells, S-45457 1.5 to 50 μM) | percentage of surface area covered by platelets [6]
CC#CCOc1ccc(S(=O)(=O)CC(c2ccc(CN(CC)CC)cc2)N(O)C=O)cc1 (centres unmarked) [Compound I-1, N-[2-(4-But-2-ynyloxybenzenesulfonyl)-1-(4-diethylaminomethylphenyl)ethyl]-N-hydroxyformamide] | 0.55 | 2.8 | strong effect of maintaining a function of human peripheral blood PRP | 8.3 |  |  | 
CC#CCOc1ccc(S(=O)(=O)CC(c2ccc(CNS(C)(=O)=O)cc2)N(O)C=O)cc1 (centres unmarked) [Compound I-4, N-{4-[2-(4-But-2-ynyloxybenzenesulfonyl)-1-(formylhydroxyamino)ethyl]benzyl}methanesulfonamide] | 0.7 | 3.4 | capable of continuously suppressing ADAM17-mediated GPIbα (CD42b) shedding even incubated for 72 hours | 6.5 | low toxicity | inhibit ADAM17-mediated GPIbα shedding in a manner dependent on the added concentration | high percentage of surface area covered by the platelets in comparison with the result of the negative control
